Source: publication PMC9667777, “A fragment-based approach leading to the discovery of inhibitors of CK2α with a novel mechanism of action” (RSC Medicinal Chemistry, 2022)
Values joined by “and” are separate entries in the source; they are usually repeats but may differ in a detail not shown here. Equal values may be shown once. Read-outs that look alike come from different tables or passages of the source.

Assays:
CK2α [1] = biological target: T1, CK2α (Homo sapiens, UniProt P68400); experiment: biochemical; details: for inhibition at 50 µM: read-out: % inhibition at 50 μM; for inhibition at 500 µM: read-out: % inhibition at 500 μM; for inhibition at 1000 µM: read-out: % inhibition at 1 mM
T1 sequence (P68400 whole entry): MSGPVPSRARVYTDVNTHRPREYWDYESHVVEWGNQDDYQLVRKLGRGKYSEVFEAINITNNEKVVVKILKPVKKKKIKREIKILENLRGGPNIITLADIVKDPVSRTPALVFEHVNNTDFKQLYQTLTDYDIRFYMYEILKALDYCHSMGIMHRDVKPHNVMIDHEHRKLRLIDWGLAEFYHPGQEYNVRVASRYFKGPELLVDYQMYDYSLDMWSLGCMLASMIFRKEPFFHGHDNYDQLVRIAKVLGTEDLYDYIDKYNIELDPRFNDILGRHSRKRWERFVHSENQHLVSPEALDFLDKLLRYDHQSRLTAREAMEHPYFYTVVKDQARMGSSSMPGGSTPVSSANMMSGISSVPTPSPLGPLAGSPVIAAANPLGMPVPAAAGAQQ

CK2α [2] = biological target: T1, CK2α
[3] = test system: CK2α-dependent phosphorylation of AKT1 Ser129 and CDC37 Ser13; details: HCT116 cells
CK2α [4] = biological target: T1, CK2α; remark: listed apart in the source
HCT116 cells [5] = experiment: cells; details: Homo sapiens, HCT-116, 72 h, read-out: GI50 HCT116, 72 hours; mean ± SEM from three experiments run in triplicate
Jurkat cells = experiment: cells; details: Homo sapiens, 72 h, read-out: GI50 Jurkat
A549 cells = experiment: cells; details: Homo sapiens, 72 h, read-out: GI50 A459
HCT116 cells [6] = details: read-out: GI50 HCT116; 72 hours; mean ± SEM from three experiments run in triplicate

SMILES	inhibition at 50 µM (CK2α [1]) [%]	Ligand efficiency (CK2α [2])	also measured
CNCc1c[nH]c2ccc(Br)cc12 [Compound 22]	21 ± 5		
Brc1ccc2[nH]cc(Cc3nccs3)c2c1 [Compound 18]	13 ± 4		
Clc1cc2[nH]ccc2cc1Br [Compound 6]		0.44 and 0.44 kJ mol^−1	inhibition at 500 µM (CK2α [1]): 93 ± 5%
Brc1ccc2[nH]cc(Cc3ccc[nH]3)c2c1 [Compound 20]	8 ± 3		
Brc1ccc2[nH]ccc2c1 [Compound 3]			inhibition at 500 µM (CK2α [1]): 22 ± 5%; inhibition at 1000 µM (CK2α [1]): 50 ± 13%
Brc1ccc2[nH]ncc2c1 [Compound 7]		0.47 and 0.47 kJ mol^−1	inhibition at 500 µM (CK2α [1]): 66 ± 5%; inhibition at 1000 µM (CK2α [1]): 84 ± 6%
N#CCc1c[nH]c2ccc(C(F)(F)F)cc12 [Compound 14]	39 ± 10		
N#CCc1c[nH]c2cc(Br)c(Br)cc12 [Compound 15]	65 ± 10		
N#CCc1n[nH]c2cc(Br)c(Br)cc12 [Compound 16]	95 ± 4	0.53 kcal/mol	
CCCc1cn(Cc2c[nH]c3ccc(Br)cc23)nn1 [Compound 21]	11 ± 6		
N#CCc1n[nH]c2ccc(Br)cc12 [Compound 10]	97 ± 3		
N#CCc1n[nH]c2cc(Cl)c(Br)cc12 [Compound 17]	98 ± 3	0.52 kcal/mol	
N=C(Cc1c[nH]c2ccc(Br)cc12)NO [Compound 23]	13 ± 5		
N#CCc1c[nH]c2cc(Cl)c(Br)cc12 [Compound 9]	103 ± 6		
N#CCc1c[nH]c2ccc(Br)cc12 [Compound 8]	32 ± 7	0.44 and 0.44 kcal mol-1 and 0.44 kJ mol^−1	inhibition of CK2α-dependent phosphorylation of Ser129 in AKT1 ([3]; twice the GI50 (170 μM), 24, 48 or 72 hours): good inhibition; inhibition of phosphorylation of Ser13 in CDC37 ([3]; twice the GI50 (170 μM), 48 h): significantly inhibited; binding to CK2α by CPMG signal (CK2α [4]; 500 μM compound + 7 μM CK2α): binds to CK2α; binding to CK2α in the presence of CX4945 (CK2α [4]; 500 μM compound + 50 μM CX4945 + 7 μM CK2α): significantly reduced; binding to CK2α in the presence of αD-binder (CK2α [4]; 500 μM compound + 500 μM αD-binder + 7 μM CK2α): largely inhibited; GI50 (HCT116 cells [5]): 88 ± 7 µM; GI50 (Jurkat cells): 55 ± 2 µM; GI50 (A549 cells): 29 ± 7 µM; inhibition at 500 µM (CK2α [1]): 87 ± 11%; inhibition at 1000 µM (CK2α [1]): 105 ± 9%
O=C(O)c1ccc2c(c1)nc(Nc1cccc(Cl)c1)c1ccncc12 [CX4945, reference compound]			GI50 (HCT116 cells [6]): 4 µM; GI50 (HCT116 cells [5]): 4.8 µM
